US8148391B2 (Cephalon, Inc., priority 2006, dated 2012)
Where two headings read alike, the source gives them in different places.

Assays:
[1] = target: T1, baculovirus-expressed ALK (Homo sapiens, UniProt Q9UM73); experiment: ALK Kinase Assay (ELISA-type, time-resolved fluorescence); format: biochemical
T1 construct: host or cells: baculovirus expression system
Outline: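 Wells were coated with phospholipase C-γ at 10 μg/mL in Tris-buffered saline. Adding 30 ng/ml enzyme started the reaction, which ran at 37° C for 15 minutes before Eu-N1 PT66 antibody detection. Percent inhibition versus log10 concentration gave IC50 by variable-slope fit.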

[2] = target: T2, c-Met (cytoplasmic domain) (Homo sapiens, UniProt P08581); experiment: c-Met Kinase Assay (same methods as for ALK, with modifications); format: biochemical
T2 construct: 10 ng/mL c-Met (cytoplasmic domain, Invitrogen Corporation #PV3143); purchased Invitrogen Corporation PV3143
T2 sequence (P08581 956-1390 limits assumed): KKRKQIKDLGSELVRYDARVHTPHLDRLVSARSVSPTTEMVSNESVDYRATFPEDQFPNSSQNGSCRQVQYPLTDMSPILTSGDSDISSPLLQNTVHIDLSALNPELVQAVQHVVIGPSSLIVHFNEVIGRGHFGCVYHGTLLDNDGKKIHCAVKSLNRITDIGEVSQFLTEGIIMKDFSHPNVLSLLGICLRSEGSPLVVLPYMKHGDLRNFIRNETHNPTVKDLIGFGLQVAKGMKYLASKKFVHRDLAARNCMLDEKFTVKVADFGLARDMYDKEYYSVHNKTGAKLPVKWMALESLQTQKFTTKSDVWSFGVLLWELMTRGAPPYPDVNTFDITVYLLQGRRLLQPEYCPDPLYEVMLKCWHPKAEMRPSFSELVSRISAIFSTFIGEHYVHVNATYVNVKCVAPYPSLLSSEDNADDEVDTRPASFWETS
Outline: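 Steps: coat wells with PLC-γ (10 μg/mL, Tris-buffered saline); add 10 ng/mL c-Met cytoplasmic domain to initiate; incubate 15 min, 37° C; detect phosphoproduct via Eu-N1 PT66 antibody.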

[3] = ALK kinase inhibition, 1 μM ATP (Km level), read-out: ALK Activity
[4] = c-Met kinase inhibition, 1 μM ATP (Km level), read-out: cMet Activity
[5] = 1 μM ATP (Km level), read-out: ALK Activity (ALK Kinase Inhibition, IC50)
[6] = 1 μM ATP (Km level), read-out: cMet Activity (c-Met Kinase Inhibition, IC50)
[7] = ALK kinase inhibition, 1 μM ATP, read-out: ALK Activity
[8] = c-Met kinase inhibition, 1 μM ATP, read-out: cMet Activity
[9] = 1 μM ATP (Km level), 30 ng/ml ALK, 37° C., 15 minutes, read-out: ALK Activity (ALK kinase inhibition, IC50 class)
[10] = 1 μM ATP (Km level), 10 ng/mL c-Met, read-out: cMet Activity (c-Met kinase inhibition, IC50 class)

T1 sequence (Q9UM73 19-1620): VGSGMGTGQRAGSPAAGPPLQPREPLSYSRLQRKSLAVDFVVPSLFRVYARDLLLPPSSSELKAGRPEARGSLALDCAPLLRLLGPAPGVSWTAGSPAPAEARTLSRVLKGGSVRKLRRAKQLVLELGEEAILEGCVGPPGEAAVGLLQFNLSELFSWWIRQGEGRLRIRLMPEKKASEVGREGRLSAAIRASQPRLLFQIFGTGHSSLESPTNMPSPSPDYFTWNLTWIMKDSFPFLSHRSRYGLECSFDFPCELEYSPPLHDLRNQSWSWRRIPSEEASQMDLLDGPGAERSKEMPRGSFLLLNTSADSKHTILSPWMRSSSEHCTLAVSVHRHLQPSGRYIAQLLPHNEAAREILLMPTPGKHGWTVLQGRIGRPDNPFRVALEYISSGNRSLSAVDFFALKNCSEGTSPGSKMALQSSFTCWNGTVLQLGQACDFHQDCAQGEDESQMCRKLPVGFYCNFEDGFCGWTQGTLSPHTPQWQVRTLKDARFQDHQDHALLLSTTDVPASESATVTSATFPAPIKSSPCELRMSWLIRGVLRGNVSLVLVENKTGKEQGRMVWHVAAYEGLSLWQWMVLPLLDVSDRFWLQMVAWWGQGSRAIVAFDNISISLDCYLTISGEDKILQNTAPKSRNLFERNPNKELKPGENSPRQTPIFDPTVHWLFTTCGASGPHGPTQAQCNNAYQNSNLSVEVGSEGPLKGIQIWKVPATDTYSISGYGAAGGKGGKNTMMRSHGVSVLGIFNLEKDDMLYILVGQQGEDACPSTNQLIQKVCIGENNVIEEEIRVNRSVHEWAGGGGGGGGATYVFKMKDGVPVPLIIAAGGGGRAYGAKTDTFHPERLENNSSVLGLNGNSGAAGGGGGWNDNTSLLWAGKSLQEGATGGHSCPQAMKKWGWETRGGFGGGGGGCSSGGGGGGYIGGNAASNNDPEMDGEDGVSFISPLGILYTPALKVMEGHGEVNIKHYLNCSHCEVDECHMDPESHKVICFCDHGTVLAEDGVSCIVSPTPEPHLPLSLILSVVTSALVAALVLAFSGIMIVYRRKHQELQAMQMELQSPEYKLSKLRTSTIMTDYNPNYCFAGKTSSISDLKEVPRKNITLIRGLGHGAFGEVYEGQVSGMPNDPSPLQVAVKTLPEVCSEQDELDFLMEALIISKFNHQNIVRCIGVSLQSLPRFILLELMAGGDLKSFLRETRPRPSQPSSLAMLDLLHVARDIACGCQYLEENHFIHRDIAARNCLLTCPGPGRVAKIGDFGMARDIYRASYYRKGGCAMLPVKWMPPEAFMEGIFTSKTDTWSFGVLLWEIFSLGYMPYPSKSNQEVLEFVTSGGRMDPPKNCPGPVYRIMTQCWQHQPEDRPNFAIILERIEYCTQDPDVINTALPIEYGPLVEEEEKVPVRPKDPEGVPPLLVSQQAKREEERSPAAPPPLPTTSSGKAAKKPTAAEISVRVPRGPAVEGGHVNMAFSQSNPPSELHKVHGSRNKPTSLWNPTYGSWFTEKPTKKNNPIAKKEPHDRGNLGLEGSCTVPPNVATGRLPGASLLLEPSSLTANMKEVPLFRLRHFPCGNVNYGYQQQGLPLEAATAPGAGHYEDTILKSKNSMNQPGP

| SMILES | IC50 [1, 5] [nM] | IC50 [2, 6] [nM] | IC50 [1, 7] [nM] | IC50 [2, 8] [nM] | other results |
| --- | --- | --- | --- | --- | --- |
| CNC(=O)c1ccccc1Nc1nc(Nc2ccc3c(c2)N(C)CCNC3=O)ncc1Cl [Example 414, 2-[5-Chloro-2-(1-methyl-5-oxo-2,3,4,5-tetrahydro-1H-benzo[e][1,4]diazepin-8-ylamino)-pyrimidin-4-ylamino]-N-methylbenzamide] | – | – | – | – | IC50 [1, 3]: < 100 nM; IC50 [2, 4]: < 100 nM |
| COc1ccc(Nc2nc(Nc3cc4c(cc3OC)CCN(CC(=O)N(C)C)CC4)ncc2Cl)c(N(C)C)c1 [Example 826, 2-{7-[5-Chloro-4-(2-dimethylamino-4-methoxy-phenylamino)-pyrimidin-2-ylamino]-8-methoxy-1,2,4,5-tetrahydro-benzo[d]azepin-3-yl}-N,N-dimethyl-acetamide] | < 100 | > 10000 | – | – | – |
| CNC(=O)c1ccccc1Nc1nc(Nc2ccc3c(c2)OCCCO3)ncc1Cl [Example 511] | < 100 | < 100 | – | – | – |
| COCCN1CCc2ccc(Nc3ncc(Cl)c(Nc4ccccc4-c4nccs4)n3)cc2CC1 [Example 979, 5-Chloro-N*2*-[3-(2-methoxy-ethyl)-2,3,4,5-tetrahydro-1H-benzo[d]azepin-7-yl]-N*4*-(2-thiazol-2-yl-phenyl)-pyrimidine-2,4-diamine] | < 100 | 100 to 1000 | – | – | – |
| COCCN1CCc2ccc(Nc3ncc(Cl)c(N[C@@H]4CCCC[C@H]4N(CC#N)S(C)(=O)=O)n3)cc2CC1 [Example 1383, N-((1R,2R)-2-{5-Chloro-2-[3-(2-methoxy-ethyl)-2,3,4,5-tetrahydro-1H-benzo[d]azepin-7-ylamino]-pyrimidin-4-ylamino}-cyclohexyl)-N-cyanomethyl-methanesulfonamide] | – | – | – | – | IC50 [1, 9]: 100 to 1000 nM; IC50 [2, 10]: 1000 to 10000 nM |
| COCC(COC)N1CCc2cc(Nc3ncc(Cl)c(NC4(CC(N)=O)CCCCC4)n3)c(OC)cc2CC1 [Example 848, 2-(1-{5-Chloro-2-[8-methoxy-3-(2-methoxy-1-methoxymethyl-ethyl)-2,3,4,5-tetrahydro-1H-benzo[d]azepin-7-ylamino]-pyrimidin-4-ylamino}-cyclohexyl)-acetamide] | 100 to 1000 | > 10000 | – | – | – |
| COc1ccccc1Nc1nc(Nc2ccc3c(c2)CCC(N2CCN(C)CC2)CC3)ncc1Cl (stereo not shown) [Example 891, 5-Chloro-N*4*-(2-methoxy-phenyl)-N*2*-[7-(4-methyl-piperazin-1-yl)-6,7,8,9-tetrahydro-5H-benzocyclohepten-2-yl]-pyrimidine-2,4-diamine] | < 100 | 1000 to 10000 | – | – | – |
| CCN1CC(=O)N(CC)c2cc(Nc3ncc(Cl)c(Nc4ccc(OC)cc4-n4cccn4)n3)c(OC)cc2C1 [Example 737, 8-[5-Chloro-4-(4-methoxy-2-pyrazol-1-yl-phenylamino)-pyrimidin-2-ylamino]-1,4-diethyl-7-methoxy-1,3,4,5-tetrahydro-benzo[e][1,4]diazepin-2-one] | < 100 | > 10000 | – | – | – |
| CCN1CC(=O)N(C)c2cc(Nc3ncc(Cl)c(N[C@@H]4CCCC[C@H]4NS(C)(=O)=O)n3)c(OC)cc2C1 [Example 745, N-[(1R,2R)-2-[5-Chloro-2-(4-ethyl-7-methoxy-1-methyl-2-oxo-2,3,4,5-tetrahydro-1H-benzo[e][1,4]diazepin-8-ylamino)-pyrimidin-4-ylamino]-cyclohexyl}-methanesulfonamide] | 100 to 1000 | > 10000 | – | – | – |
| CCN1C(=O)C(N)CCc2c1ccc(Nc1ncc(Cl)c(Nc3ccccc3S(=O)(=O)C(C)C)n1)c2OC (stereo not shown) [Example 1337, 3-Amino-7-{5-chloro-4-[2-(propane-2-sulfonyl)-phenylamino]-pyrimidin-2-ylamino}-1-ethyl-6-methoxy-1,3,4,5-tetrahydro-benzo[b]azepin-2-one] | – | – | – | – | IC50 [1, 9]: < 100 nM; IC50 [2, 10]: > 10000 nM |
| COCCN1CCc2ccc(Nc3ncc(Cl)c(Nc4ccccc4-c4nccn4CCOC)n3)cc2CC1 [Example 981, 5-Chloro-N*4*-{2-[1-(2-methoxy-ethyl)-1H-imidazol-2-yl]-phenyl}-N*2*-[3-(2-methoxy-ethyl)-2,3,4,5-tetrahydro-1H-benzo[d]azepin-7-yl]-pyrimidine-2,4-diamine] | 100 to 1000 | 1000 to 10000 | – | – | – |
| COc1cc2c(cc1Nc1ncc(Cl)c(Nc3ccccc3OC)n1)CCN(CCS(C)(=O)=O)CC2 [Example 1132, 5-Chloro-N*2*-[3-(2-methanesulfonyl-ethyl)-8-methoxy-2,3,4,5-tetrahydro-1H-benzo[d]azepin-7-yl]-N*4*-(2-methoxy-phenyl)-pyrimidine-2,4-diamine] | – | – | – | – | IC50 [1, 9]: < 100 nM; IC50 [2, 10]: > 10000 nM |
| CNC(=O)c1ccccc1Nc1nc(Nc2ccc3c(c2)CCC(N2CCOCC2)CC3)ncc1Cl (stereo not shown) [Example 178, 2-[5-Chloro-2-(7-morpholin-4-yl-6,7,8,9-tetrahydro-5H-benzocyclohepten-2-ylamino)-pyrimidin-4-ylamino]-N-methyl-benzamide] | – | – | – | – | IC50 [1, 3]: < 100 nM; IC50 [2, 4]: < 100 nM |
| COc1cc2c(cc1Nc1ncc(Cl)c(Nc3ccccc3S(=O)(=O)N3CC[C@H](O)C3)n1)CCN(CC(=O)N(C)C)CC2 [Example 1206, 2-(7-{5-Chloro-4-[2-((S)-3-hydroxy-pyrrolidine-1-sulfonyl)-phenylamino]-pyrimidin-2-ylamino}-8-methoxy-1,2,4,5-tetrahydro-benzo[d]azepin-3-yl)-N,N-dimethyl-acetamide] | – | – | – | – | IC50 [1, 9]: < 100 nM; IC50 [2, 10]: 1000 to 10000 nM |

Second part, led by results:

| IC50 [1, 5] [nM] | IC50 [2, 6] [nM] | IC50 [1, 7] [nM] | IC50 [2, 8] [nM] | SMILES | other results |
| --- | --- | --- | --- | --- | --- |
| – | – | 100 to 1000 | 100 to 1000 | CNC(=O)c1ccc2c(c1Nc1nc(Nc3ccc4c(c3)NC(=O)CCC4(C)C)ncc1Cl)OCO2 [Example 1481, 4-[5-Chloro-2-(5,5-dimethyl-2-oxo-2,3,4,5-tetrahydro-1H-benzo[b]azepin-8-ylamino)-pyrimidin-4-ylamino]-benzo[1,3]dioxole-5-carboxylic acid methyl amide] | – |
| – | – | < 100 | < 100 | CCN1C(=O)OCCc2cc(Nc3ncc(Cl)c(Nc4c(F)cccc4C(=O)NC)n3)ccc21 [Example 1746, 2-[5-chloro-2-(5-ethyl-6-oxo-5,6,8,9-tetrahydro-7-oxa-5-aza-benzocyclohepten-2-ylamino)-pyrimidin-4-ylamino]-3-fluoro-N-methyl-benzamide] | – |
| – | – | 100 to 1000 | 100 to 1000 | CNC(=O)c1ccsc1Nc1nc(Nc2ccc3c(c2)CCCC(=O)N3C)ncc1Cl [Example 1487, 2-[5-Chloro-2-(1-methyl-2-oxo-2,3,4,5-tetrahydro-1H-benzo[b]azepin-7-ylamino)-pyrimidin-4-ylamino]-thiophene-3-carboxylic acid methylamide] | – |
| – | – | 100 to 1000 | < 100 | C#CCNC(=O)c1cccc(F)c1Nc1nc(Nc2ccc3c(c2)N(C(C)=O)CCCC3)ncc1Cl [Example 1490, 2-[2-(1-Acetyl-2,3,4,5-tetrahydro-1H-benzo[b]azepin-8-ylamino)-5-chloro-pyrimidin-4-ylamino]-3-fluoro-N-prop-2-ynyl-benzamide] | – |
| – | – | 100 to 1000 | 1000 to 10000 | CC(=O)NCc1ccccc1Nc1nc(Nc2ccc3c(c2)CCOC(=O)N3C)ncc1Cl [Example 1793, N-{2-[5-Chloro-2-(5-methyl-6-oxo-5,6,8,9-tetrahydro-7-oxa-5-aza-benzocyclohepten-2-ylamino)-pyrimidin-4-ylamino]-benzyl}-acetamide] | – |
| – | – | 1000 to 10000 | < 100 | CCN1C(=O)CN(C(C)=O)Cc2ccc(Nc3ncc(Cl)c(Nc4ccsc4C(=O)NC)n3)cc21 [Example 1853, 3-[2-(4-Acetyl-1-ethyl-2-oxo-2,3,4,5-tetrahydro-1H-benzo[e][1,4]diazepin-8-ylamino)-5-chloro-pyrimidin-4-ylamino]-thiophene-2-carboxylic acid methylamide] | – |
